Measured values as given in patent US6673574B2, “Oral delivery of peptides using enzyme-cleavable membrane translocators” (Unigene Laboratories Inc., priority 2000, dated 2004).
Like-named read-outs stand apart in the source and are kept apart here.

Legend:
[1] = Absorption from rat duodenum: intraduodenal injection, plasma concentration by competitive enzyme immunoassay; type: in vivo; conditions: for Cmax: peak plasma concentration by inspection
Method: Female Sprague-Dawley rats (250-275 g) (n=4 for each peptide) were anesthetized with ketamine and xylazine prior to the insertion of a cannula in the carotid artery. The cannula was fitted to a three way valve through which blood was sampled and replaced with physiological saline containing heparin. A midline incision was made in the abdominal cavity, and 0.45 mL of either sCT-gly (10 mg/mL) or OmpA-MT3-sCT-gly (10 mg/mL) in 0.5M citric acid was injected directly into the duodenum. Blood (0.5 ml) was collected before and at 5, 15, 30, 45 and 60 minutes after administration of the peptides. The blood was centrifuged, and the concentration (± SEM [standard error of the mean]) of sCT-gly or OmpA-MT3-sCT-gly in the plasma supernatant was determined by a competitive enzyme immunoassay (EIA). Peak plasma concentration (Cmax) was determined by inspection. The absolute bioavailbilty of each peptide (relative to an intravenous dose of sCT [salmon calcitonin]) was calculated from plots of the plasma concentration of each peptide as a function to time.

[2] = Blood levels of salmon calcitonin after direct injection into duodenum, ileum or colon of rats; type: in vivo; conditions: rat, other: injected directly into the duodenum, active components injected directly into duodenum
From the text: The acid is believed to lower the local intestinal pH (where the active agent has been released) to levels below the optimal range for many intestinal proteases and other intestinal enzymes. This decrease in pH reduces the proteolytic activity of the intestinal proteases, thus affording protection to the peptide and the membrane translocator from potential degradation. The activity of these proteases is diminished by the temporarily acidic environment provided by the invention. It is preferred that sufficient acid be provided that local intestinal pH is lowered temporarily to 5.5 or below, preferably 4.7 or below and more preferably 3.5 or below. The sodium bicarbonate test described below (in the section captioned “the pH-Lowering Agent”) is indicative of the required acid amount.

[3] = cited from earlier work
[4] = 0 min (before administration), 0.45 mL of 10 mg/mL in 0.5M citric acid into duodenum, ± SEM, n=4

**Q.** Which results are given for `CC(C)C[C@H](NC(=O)[C@H](CCCCN)NC(=O)CNC(=O)[C@H](CC(C)C)NC(=O)[C@@H](NC(=O)[C@@H]1CSSC[C@H](N)C(=O)N[C@@H](CO)C(=O)N[C@@H](CC(N)=O)C(=O)N[C@@H](CC(C)C)C(=O)N[C@@H](CO)C(=O)N[C@@H]([C@@H](C)O)C(=O)N1)C(C)C)C(=O)N[C@@H](CO)C(=O)N[C@@H](CCC(N)=O)C(=O)N[C@@H](CCC(=O)O)C(=O)N[C@@H](CC(C)C)C(=O)N[C@@H](Cc1c[nH]cn1)C(=O)N[C@@H](CCCCN)C(=O)N[C@@H](CC(C)C)C(=O)N[C@@H](CCC(N)=O)C(=O)N[C@H](C(=O)N[C@@H](Cc1ccc(O)cc1)C(=O)N1CCC[C@H]1C(=O)N[C@@H](CCCNC(=N)N)C(=O)N[C@H](C(=O)N[C@@H](CC(N)=O)C(=O)N[C@H](C(=O)NCC(=O)N[C@@H](CO)C(=O)NCC(=O)N[C@H](C(=O)N1CCC[C@H]1C(=O)NCC(=O)O)[C@@H](C)O)[C@@H](C)O)[C@@H](C)O)[C@@H](C)O` [sCT-gly, CYS-SER-ASN-LEU-SER-THR-CYS-VAL-LEU-GLY-LYS-LEU-SER-GLN-GLU-LEU-HIS-LYS-LEU-GLN-THR-TYR-PRO-ARG-THR-ASN-THR-GLY-SER-GLY-THR-PRO-GLY]?
**A.** plasma concentration [1, 4]: 0.00 ng/mL; Cmax ([1]; female, Sprague-Dawley, 4.5 mg, intraduodenal, rat, ± SEM, read-out: Cmax): 223 ± 44.8 ng/mL; bioavailability ([1]; female, Sprague-Dawley, plasma, other: injected directly into the duodenum (intraduodenal), 4.5 mg, relative to an intravenous dose of sCT, intraduodenal, rat, ± SEM, read-out: Absolute bioavailability): 0.92 ± 0.23%; level at 5 min ([1]; female, Sprague-Dawley, rat, plasma, 4.5 mg per animal, 5 min after intraduodenal injection, ± SEM, n=4): 201 ± 73.7 ng/mL; level at 0.25 h ([1]; female, Sprague-Dawley, rat, plasma, 4.5 mg per animal, 15 min after intraduodenal injection, ± SEM, n=4): 116 ± 39.1 ng/mL; level at 0.5 h ([1]; female, Sprague-Dawley, rat, plasma, 4.5 mg per animal, 30 min after intraduodenal injection, ± SEM, n=4): 223 ± 44.8 ng/mL; level at 0.75 h ([1]; female, Sprague-Dawley, rat, plasma, 4.5 mg per animal, 45 min after intraduodenal injection, ± SEM, n=4): 151 ± 107 ng/mL; level at 1 h ([1]; female, Sprague-Dawley, rat, plasma, 4.5 mg per animal, 60 min after intraduodenal injection, ± SEM, n=4): 179 ± 76.2 ng/mL

**Q.** For `CC(C)C[C@H](NC(=O)[C@H](CCCCN)NC(=O)CNC(=O)[C@H](CC(C)C)NC(=O)[C@@H](NC(=O)[C@@H]1CSSC[C@H](N)C(=O)N[C@@H](CO)C(=O)N[C@@H](CC(N)=O)C(=O)N[C@@H](CC(C)C)C(=O)N[C@@H](CO)C(=O)N[C@@H]([C@@H](C)O)C(=O)N1)C(C)C)C(=O)N[C@@H](CO)C(=O)N[C@@H](CCC(N)=O)C(=O)N[C@@H](CCC(=O)O)C(=O)N[C@@H](CC(C)C)C(=O)N[C@@H](Cc1c[nH]cn1)C(=O)N[C@@H](CCCCN)C(=O)N[C@@H](CC(C)C)C(=O)N[C@@H](CCC(N)=O)C(=O)N[C@H](C(=O)N[C@@H](Cc1ccc(O)cc1)C(=O)N1CCC[C@H]1C(=O)N[C@@H](CCCNC(=N)N)C(=O)N[C@H](C(=O)N[C@@H](CC(N)=O)C(=O)N[C@H](C(=O)NCC(=O)N[C@@H](CO)C(=O)NCC(=O)N[C@H](C(=O)N1CCC[C@H]1C(N)=O)[C@@H](C)O)[C@@H](C)O)[C@@H](C)O)[C@@H](C)O` [salmon calcitonin], which Tmax [2] is on record?
**A.** Its Tmax is 5 to 15 min.

**Q.** What about the “blood levels more than two hours after injection” value ([3]; conventional dosages) of the same molecule?
**A.** Its value is “no detectable blood levels”.

**Q.** What about the “peak level at which some patients report gastrointestinal distress” value ([3]; patients) of the same molecule?
**A.** Its value is at least 200 picograms per milliliter.

**Q.** And the half-life ([3]; subcutaneous administration in man)?
**A.** Its half-life is 20 to 40 min.

**Q.** What about the peak serum concentration ([3]; subcutaneous, 100 International units) of the same molecule?
**A.** Its peak serum concentration is “about 250 picograms per milliliter”.

B1: OmpA-MT3-sCT-gly: salmon calcitonin-Gly fused to two MTs, the unprocessed OmpA signal peptide and MTS3 (HIV TAT domain), with TRP-VAL-ALA cleavable sequence (protein)
chain: MKKTAIAIAVALAGFATVAQAYGRKKRRQRRRWVACSNLSTCVLGKLSQELHKLQTYPRTNTGSGTPG
modifications: ends and bridges not checked
**Q.** Which results are given for B1?
**A.** plasma concentration [1, 4]: 0.00 ng/mL; plasma concentration ([1]; 5 min after intraduodenal injection, ± SEM, n=4): 563.07 ± 150.44 ng/mL; plasma concentration ([1]; 15 min after intraduodenal injection, ± SEM, n=4): 1861.86 ± 713.20 ng/mL; plasma concentration ([1]; 30 min after intraduodenal injection, ± SEM, n=4): 5603.76 ± 1749.75 ng/mL; plasma concentration ([1]; 45 min after intraduodenal injection, ± SEM, n=4): 3879.76 ± 713.62 ng/mL; plasma concentration ([1]; 60 min after intraduodenal injection, ± SEM, n=4): 6060.70 ± 2462.69 ng/mL; Cmax relative to that of sCT-gly ([1]; intraduodenal, rat): more than 25 fold; Cmax ([1]; intraduodenal, rat, ± SEM): 6060.70 ± 2462.69 ng/mL; Absolute bioavailability ([1]; relative to an intravenous dose of sCT, intraduodenal, rat, ± SEM): 21.26 ± 6.23%
